Measurements published in PubChem BioAssay (NCI).
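A five-concentration, 48-hour dose response in 96-well plates underlies each endpoint, interpolated linearly between surrounding concentrations. Abbreviation: GI50, concentration required for 50% inhibition of growth. Definition used: TGI = concentration required for complete inhibition of growth.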

Key:
Experiment in all cases: NCI anticancer screen, dose series, 48 h
786-0 renal = system: 786-0 renal
A498 renal = system: A498 renal
ACHN renal = system: ACHN renal
BT-549 breast = system: BT-549 breast
CAKI-1 renal = system: CAKI-1 renal
CCRF-CEM leukemia = system: CCRF-CEM leukemia
DU-145 prostate = system: DU-145 prostate
EKVX NSCLC = system: EKVX NSCLC
HCC-2998 colon = system: HCC-2998 colon
HCT-15 colon = system: HCT-15 colon
HL-60(TB) leukemia = system: HL-60(TB) leukemia
HOP-92 NSCLC = system: HOP-92 NSCLC
HS 578T breast = system: HS 578T breast
IGROV1 ovarian = system: IGROV1 ovarian
K-562 leukemia = system: K-562 leukemia
KM12 colon = system: KM12 colon
MALME-3M melanoma = system: MALME-3M melanoma
MOLT-4 leukemia = system: MOLT-4 leukemia
NCI-H460 lung = system: NCI-H460 lung
NCI/ADR-RES ovarian = system: NCI/ADR-RES ovarian
OVCAR-4 ovarian = system: OVCAR-4 ovarian
OVCAR-5 ovarian = system: OVCAR-5 ovarian
PC-3 prostate = system: PC-3 prostate
RXF 393 renal = system: RXF 393 renal
SF-539 CNS = system: SF-539 CNS
SK-MEL-2 melanoma = system: SK-MEL-2 melanoma
SK-MEL-28 melanoma = system: SK-MEL-28 melanoma
SK-MEL-5 melanoma = system: SK-MEL-5 melanoma
SN12C renal = system: SN12C renal
SNB-19 CNS = system: SNB-19 CNS
SR leukemia = system: SR leukemia
SW-620 colon = system: SW-620 colon
TK-10 renal = system: TK-10 renal
UACC-257 melanoma = system: UACC-257 melanoma
UACC-62 melanoma = system: UACC-62 melanoma
UO-31 renal = system: UO-31 renal
A549 NSCLC = system: A549 NSCLC
COLO 205 colon = system: COLO 205 colon
HCT-116 colon = system: HCT-116 colon
HOP-62 NSCLC = system: HOP-62 NSCLC
HT29 colon = system: HT29 colon
LOX IMVI melanoma = system: LOX IMVI melanoma
M14 melanoma = system: M14 melanoma
MCF7 breast = system: MCF7 breast
MDA-MB-231 breast = system: MDA-MB-231 breast
MDA-MB-435 = system: MDA-MB-435
NCI-H226 lung = system: NCI-H226 lung
NCI-H23 lung = system: NCI-H23 lung
NCI-H522 lung = system: NCI-H522 lung
OVCAR-3 ovarian = system: OVCAR-3 ovarian
OVCAR-8 ovarian = system: OVCAR-8 ovarian
RPMI-8226 leukemia = system: RPMI-8226 leukemia
SF-268 CNS = system: SF-268 CNS
SF-295 CNS = system: SF-295 CNS
SK-OV-3 ovarian = system: SK-OV-3 ovarian
SNB-75 CNS = system: SNB-75 CNS
T-47D breast = system: T-47D breast
U251 CNS = system: U251 CNS

Nc1ccc(Oc2ccc(C3(c4ccc(Oc5ccc(N)c(O)c5)cc4)C4CC5C6CC7CC5C3C(C7)C6C4)cc2)cc1O
TGI (786-0 renal): 3.4 µM | TGI (A498 renal): 4.73 µM | TGI (ACHN renal): 3.18 µM | TGI (BT-549 breast): > 31.2 µM | TGI (CAKI-1 renal): 6.72 µM | TGI (CCRF-CEM leukemia): > 100 µM | TGI (DU-145 prostate): 3.54 µM | TGI (EKVX NSCLC): > 24.1 µM | TGI (HCC-2998 colon): 4.96 µM | TGI (HCT-15 colon): 10.3 µM | TGI (HL-60(TB) leukemia): > 100 µM | TGI (HOP-92 NSCLC): 5.02 µM | TGI (HS 578T breast): > 100 µM | TGI (IGROV1 ovarian): 4.68 µM | TGI (K-562 leukemia): 5.35 µM | TGI (KM12 colon): 3.85 µM | TGI (MALME-3M melanoma): > 24.2 µM | TGI (MOLT-4 leukemia): 4.99 µM | TGI (NCI-H460 lung): > 100 µM | TGI (NCI/ADR-RES ovarian): > 100 µM | TGI (OVCAR-4 ovarian): 5.73 µM | TGI (OVCAR-5 ovarian): 5.76 µM | TGI (PC-3 prostate): 3.48 µM | TGI (RXF 393 renal): 4.5 µM | TGI (SF-539 CNS): > 21.6 µM | TGI (SK-MEL-2 melanoma): 5.64 µM | TGI (SK-MEL-28 melanoma): > 26.5 µM | TGI (SK-MEL-5 melanoma): > 26.4 µM | TGI (SN12C renal): 3.19 µM | TGI (SNB-19 CNS): 24.2 µM | TGI (SR leukemia): > 100 µM | TGI (SW-620 colon): > 100 µM | TGI (TK-10 renal): > 26 µM | TGI (UACC-257 melanoma): 14.6 µM | TGI (UACC-62 melanoma): 17.7 µM | TGI (UO-31 renal): 8.12 µM

CCOn1cc(C2=C(c3c[nH]c4ccccc34)C(=O)NC2=O)c2ccccc21
TGI (786-0 renal): 15.7 µM | GI50 (A549 NSCLC): < 0.0284 µM | TGI (A549 NSCLC): 22.7 µM | TGI (ACHN renal): 16.4 µM | GI50 (CAKI-1 renal): < 0.0121 µM | TGI (CAKI-1 renal): < 0.0306 µM | GI50 (CCRF-CEM leukemia): 0.0672 µM | TGI (CCRF-CEM leukemia): 19 µM | GI50 (COLO 205 colon): < 0.0439 µM | GI50 (DU-145 prostate): 0.163 µM | TGI (DU-145 prostate): 16.9 µM | GI50 (EKVX NSCLC): 14.6 µM | TGI (EKVX NSCLC): 29.9 µM | GI50 (HCC-2998 colon): < 0.01 µM | TGI (HCC-2998 colon): < 0.01 µM | GI50 (HCT-116 colon): < 0.0217 µM | TGI (HCT-116 colon): 4.03 µM | TGI (HCT-15 colon): 14.8 µM | GI50 (HL-60(TB) leukemia): < 0.0176 µM | GI50 (HOP-62 NSCLC): < 0.01 µM | TGI (HOP-62 NSCLC): 18.5 µM | GI50 (HOP-92 NSCLC): 23.2 µM | TGI (HOP-92 NSCLC): 38.8 µM | GI50 (HT29 colon): < 0.0224 µM | TGI (HT29 colon): 12.8 µM | GI50 (IGROV1 ovarian): 15.8 µM | TGI (IGROV1 ovarian): > 61.6 µM | GI50 (K-562 leukemia): < 0.0139 µM | TGI (K-562 leukemia): > 33.1 µM | GI50 (KM12 colon): < 0.0161 µM | TGI (KM12 colon): 2 µM | TGI (LOX IMVI melanoma): 25.9 µM | GI50 (M14 melanoma): 0.0542 µM | TGI (M14 melanoma): 17.9 µM | GI50 (MCF7 breast): < 0.0149 µM | TGI (MCF7 breast): 1.03 µM | GI50 (MDA-MB-231 breast): 0.806 µM | TGI (MDA-MB-231 breast): 26.4 µM | GI50 (MDA-MB-435): < 0.01 µM | TGI (MDA-MB-435): < 0.0142 µM | GI50 (MOLT-4 leukemia): < 0.01 µM | TGI (MOLT-4 leukemia): 10.4 µM | GI50 (NCI-H226 lung): 1.01 µM | TGI (NCI-H226 lung): 27.4 µM | GI50 (NCI-H23 lung): < 0.028 µM | TGI (NCI-H23 lung): 0.47 µM | TGI (NCI-H460 lung): 15.4 µM | TGI (NCI-H522 lung): > 33.6 µM | GI50 (NCI/ADR-RES ovarian): < 0.01 µM | TGI (NCI/ADR-RES ovarian): < 0.01 µM | GI50 (OVCAR-3 ovarian): < 0.0117 µM | TGI (OVCAR-3 ovarian): < 0.0182 µM | GI50 (OVCAR-4 ovarian): 14.6 µM | TGI (OVCAR-4 ovarian): > 72.4 µM | GI50 (OVCAR-5 ovarian): 0.398 µM | TGI (OVCAR-5 ovarian): 17.2 µM | GI50 (OVCAR-8 ovarian): 0.0935 µM | TGI (OVCAR-8 ovarian): 20.3 µM | GI50 (PC-3 prostate): < 0.0389 µM | TGI (PC-3 prostate): 17.3 µM | TGI (RPMI-8226 leukemia): 5.28 µM | GI50 (RXF 393 renal): < 0.0325 µM | GI50 (SF-268 CNS): < 0.0385 µM | TGI (SF-268 CNS): 25.1 µM | GI50 (SF-295 CNS): 0.0156 µM | TGI (SF-295 CNS): 0.0443 µM | GI50 (SF-539 CNS): < 0.01 µM | TGI (SF-539 CNS): < 0.01 µM | GI50 (SK-MEL-2 melanoma): 12.2 µM | TGI (SK-MEL-2 melanoma): 25.8 µM | GI50 (SK-MEL-28 melanoma): 2.05 µM | TGI (SK-MEL-28 melanoma): 25.3 µM | GI50 (SK-MEL-5 melanoma): < 0.01 µM | TGI (SK-MEL-5 melanoma): < 0.01 µM | GI50 (SK-OV-3 ovarian): 0.062 µM | TGI (SK-OV-3 ovarian): 0.735 µM | GI50 (SN12C renal): 0.765 µM | TGI (SN12C renal): 14.8 µM | GI50 (SNB-19 CNS): < 0.0264 µM | TGI (SNB-19 CNS): 20.5 µM | GI50 (SNB-75 CNS): < 0.0288 µM | TGI (SNB-75 CNS): 34.8 µM | GI50 (SR leukemia): 0.0343 µM | TGI (SR leukemia): 29.4 µM | GI50 (SW-620 colon): < 0.01 µM | TGI (SW-620 colon): 22.7 µM | GI50 (T-47D breast): 18.5 µM | TGI (T-47D breast): > 100 µM | GI50 (TK-10 renal): 0.0322 µM | TGI (TK-10 renal): 0.198 µM | GI50 (U251 CNS): 0.488 µM | TGI (U251 CNS): 19.5 µM | GI50 (UACC-257 melanoma): 0.859 µM | TGI (UACC-257 melanoma): 20.5 µM | GI50 (UACC-62 melanoma): < 0.01 µM | TGI (UACC-62 melanoma): 20.3 µM | GI50 (UO-31 renal): 16.9 µM | TGI (UO-31 renal): > 47.4 µM
